Consider 13 molecules from patent publication US7709643B2, “Synthesis of sodium narcistatin and related compounds” (Arizona Board of Regents, a body corporate of the State of …, priority 2005, dated 2010).

Values after ≈ are worked out from the molar mass of the structure shown.

For data set [1], the system named is NCI-H460. The data set is described as follows: Human cancer cell line minipanel, Lung-NSC NCI-H460. Type of data set: cell-based. On the procedure: (§1) The cyclic phosphate prodrugs, along with the parent compounds were evaluated against a minipanel of human cancer cell lines and murine P388 lymphocytic leukemia.
For data set [2], the system named is DU-145. Description: Human cancer cell line minipanel, Prostate DU-145. Format: cell-based. On the procedure: as §1
Data set [3] deals with NCI panel of cancer cell lines. The conditions noted are these: J. Nat. Prod. 56:1682-1687, 1993; cited from earlier work.
In data set [4] the test system is KM20L2. The data set is described as follows: Human cancer cell line minipanel, Colon KM20L2. Format: cell-based. How it is done: as §1
Data set [5] relates to minipanel of human cancer cell lines and murine P388 lymphocytic leukemia. Description: Minipanel of human cancer cell lines and murine P388 lymphocytic leukemia (summary in words). Type of data set: cell-based. The conditions noted are these: summary of the cancer cell line evaluations of Table 2. How it is done: as §1
The corresponding 3,5-cyclic phosphates were less inhibitory under the experimental conditions employed. However, cleavage of the phosphate groups is expected to be very effective in vivo and such anticancer evaluations are now underway as part of the further preclinical development of these new anticancer drug candidates. (Pettit, G. R., et al., J. Nat. Prod. 2003, 66, 92-96.), (Dowlati, A., et al., Cancer Research 2002, 62, 3408-3416.), (Dziba, J. M., et al., Thyroid 2002, 12, 1063-1070.), (Eikesdal, H. P., et al., Cancer Lett. 2002, 178, 209-217.), (Prise, V., et al., Int. J. Oncology 2002, 21, 717-726.), (Hill, S. A., et al., Int. J. Cancer 2002, 102, 70-74.)

The nature of data set [6]: Aqueous solubility at 25° C. Format: physicochemical.
Data set [7] relates to BXPC-3. The data set is described as follows: Human cancer cell line minipanel, Pancreas-a BXPC-3. Type of data set: cell-based. On the procedure:
as §1

The test system of data set [8] is SF268. The data set is described as follows: Human cancer cell line minipanel, CNS SF268. Type of data set: cell-based. On the procedure:
as §1

For data set [9], the system named is RNA viruses. The settings on record: J. Nat. Prod. 55:1569-1581; 1992; cited from earlier work.
The subject of data set [10] is MCF-7. The data set is described as follows: Human cancer cell line minipanel, Breast MCF-7. Type of data set: cell-based. How it is done: as §1

A word on the GI50: it is the concentration at which growth is held to half of that of the control. In the case of `O=C1N[C@H]2[C@H](O)[C@H](O)[C@@H](O)C[C@@H]2c2cc3c(c(O)c21)OCO3` (relative stereo) [1a, trans-dihydronarciclasine], the “GI50 Lung-NSC NCI-H460” value in [1] amounted to 0.0092 µg/mL (≈ 0.0297 µM). In data set [2], the “GI50 Prostate DU-145” value was 0.0066 µg/mL (≈ 0.0213 µM). Also, the 50% growth inhibitory concentration (GI50) in data set [3] was 12.6 nM. In data set [4], the “GI50 Colon KM20L2” value came to 0.015 µg/mL (≈ 0.0485 µM). In addition, the “cancer cell growth inhibitory activity (in words)” value in [5] is listed as “strong cancer cell growth inhibitory activity”. In addition, the “Aqueous Solubility 25° C.” value in [6] is <1000 µg/mL. Moreover, the “GI50 Pancreas-a BXPC-3” value in [7] is 0.012 µg/mL (≈ 0.0388 µM). Also, the “GI50 CNS SF268” value in data set [8] was 0.020 µg/mL (≈ 0.0647 µM). The “activity against a range of RNA viruses” value in [9] is reported as “strong activity”. For the same molecule, the “GI50 Breast MCF-7” value in [10] turned out to be 0.0053 µg/mL (≈ 0.0171 µM).

In the case of `O=C1N[C@H]2[C@H](O)[C@H](O)[C@@H](O)C[C@@H]2c2cc3c(cc21)OCO3` (relative stereo) [1c, 7-deoxy-trans-dihydronarciclasine], the “GI50 Lung-NSC NCI-H460” value in data set [1] is 0.043 µg/mL (≈ 0.147 µM). For the same molecule, in data set [2], the “GI50 Prostate DU-145” value worked out at 0.040 µg/mL (≈ 0.136 µM). Also, the “GI50 Colon KM20L2” value in data set [4] came out at 0.051 µg/mL (≈ 0.174 µM). Also, in [5], the “cancer cell growth inhibitory activity (in words)” value was “strong cancer cell growth inhibitory activity”. The “Aqueous Solubility 25° C.” value in data set [6] was <1000 µg/mL. Besides, the “GI50 Pancreas-a BXPC-3” value in [7] is 0.046 µg/mL (≈ 0.157 µM). Further, in data set [8], the “GI50 CNS SF268” value came to 0.059 µg/mL (≈ 0.201 µM). In addition, the “GI50 Breast MCF-7” value in [10] is 0.034 µg/mL (≈ 0.116 µM).

On to `O=C1N[C@H]2[C@@H]3OP(=O)([O-])O[C@@H]3[C@@H](O)C[C@@H]2c2cc3c(cc21)OCO3.[Li+]` (relative stereo) [11a, Lithium 7-deoxy-trans-dihydro-narcistatin], for which the “GI50 Lung-NSC NCI-H460” value in data set [1] is >1 µg/mL. Moreover, the “GI50 Prostate DU-145” value in data set [2] was >1 µg/mL. In addition, the “GI50 Colon KM20L2” value in [4] was >1 µg/mL. Moreover, the “GI50 Pancreas-a BXPC-3” value in [7] was >1 µg/mL. Besides, the “GI50 CNS SF268” value in data set [8] is >1 µg/mL. Besides, the “GI50 Breast MCF-7” value in [10] is >1 µg/mL.

Consider `O=C1N[C@H]2[C@@H]3OP(=O)([O-])O[C@@H]3[C@@H](O)C[C@@H]2c2cc3c(cc21)OCO3.[K+]` (relative stereo) [11b, Potassium 7-deoxy-trans-dihydro-narcistatin], for which the “GI50 Lung-NSC NCI-H460” value in data set [1] is >1 µg/mL. Also, the “GI50 Prostate DU-145” value in [2] was >1 µg/mL. Moreover, in data set [4], the “GI50 Colon KM20L2” value is >1 µg/mL. For the same molecule, the “GI50 Pancreas-a BXPC-3” value in data set [7] was >1 µg/mL. In data set [8], the “GI50 CNS SF268” value is >1 µg/mL. Besides, the “GI50 Breast MCF-7” value in data set [10] was >1 µg/mL.

In the case of `O=C1N[C@H]2[C@@H]3OP(=O)([O-])O[C@@H]3[C@@H](O)C[C@@H]2c2cc3c(c(O)c21)OCO3.[Li+]` (relative stereo) [12a, Lithium trans-dihydro-narcistatin], the “GI50 Lung-NSC NCI-H460” value in data set [1] was >1 µg/mL. In addition, the “GI50 Prostate DU-145” value in [2] was >1 µg/mL. The “GI50 Colon KM20L2” value in [4] is >1 µg/mL. For the same molecule, in data set [7], the “GI50 Pancreas-a BXPC-3” value was >1 µg/mL. For the same molecule, the “GI50 CNS SF268” value in data set [8] is >1 µg/mL. In addition, the “GI50 Breast MCF-7” value in [10] was >1 µg/mL.

On to `O=C1N[C@H]2[C@@H]3OP(=O)([O-])O[C@@H]3[C@@H](O)C[C@@H]2c2cc3c(c(O)c21)OCO3.[K+]` (relative stereo) [12b, Potassium trans-dihydro-narcistatin], for which, in data set [1], the “GI50 Lung-NSC NCI-H460” value is >1 µg/mL. The “GI50 Prostate DU-145” value in [2] was determined as 0.54 µg/mL. The “GI50 Colon KM20L2” value in [4] was >1 µg/mL. Besides, the “GI50 Pancreas-a BXPC-3” value in [7] is >1 µg/mL. Moreover, the “GI50 CNS SF268” value in [8] was >1 µg/mL. In addition, the “GI50 Breast MCF-7” value in data set [10] is 0.64 µg/mL.

On to `O=C1N[C@H]2[C@@H]3OP(=O)([O-])O[C@@H]3[C@@H](O)C[C@@H]2c2cc3c(cc21)OCO3.[Na+]` (relative stereo) [compound 11, Sodium 7-Deoxy-trans-dihydro-narcistatin], for which the “GI50 Lung-NSC NCI-H460” value in data set [1] was >10 µg/mL. For the same molecule, in [2], the “GI50 Prostate DU-145” value is >10 µg/mL. Also, the “GI50 Colon KM20L2” value in [4] was >10 µg/mL. For the same molecule, the “GI50 Pancreas-a BXPC-3” value in data set [7] is >10 µg/mL. Further, the “GI50 CNS SF268” value in data set [8] is >10 µg/mL. Also, in data set [10], the “GI50 Breast MCF-7” value amounted to 7.2 µg/mL.

Turning to `O=C1N[C@H]2[C@@H]3OP(=O)([O-])O[C@@H]3[C@@H](O)C[C@@H]2c2cc3c(c(O)c21)OCO3.[Na+]` (relative stereo) [compound 12, Sodium trans-dihydro-narcistatin], the “GI50 Lung-NSC NCI-H460” value in data set [1] amounted to 7.8 µg/mL. In addition, the “GI50 Prostate DU-145” value in [2] stood at 5.2 µg/mL. Besides, the “GI50 Colon KM20L2” value in data set [4] is 9.6 µg/mL. The “GI50 Pancreas-a BXPC-3” value in data set [7] amounted to 5.6 µg/mL. In addition, the “GI50 CNS SF268” value in data set [8] stood at 8.8 µg/mL. Moreover, in [10], the “GI50 Breast MCF-7” value is 4.6 µg/mL.

As for `O=C1N[C@@H]2C(=C[C@H](O)[C@@H](O)[C@H]2O)c2cc3c(cc21)OCO3` [2c, 7-deoxynarciclasine, reference compound], in data set [1], the “GI50 Lung-NSC NCI-H460” value is 0.053 µg/mL (≈ 0.182 µM). Besides, the “GI50 Prostate DU-145” value in [2] turned out to be 0.051 µg/mL (≈ 0.175 µM). In data set [4], the “GI50 Colon KM20L2” value was 0.084 µg/mL (≈ 0.288 µM). For the same molecule, the “Aqueous Solubility 25° C.” value in data set [6] was <1000 µg/mL. In data set [7], the “GI50 Pancreas-a BXPC-3” value turned out to be 0.070 µg/mL (≈ 0.24 µM). Also, the “GI50 CNS SF268” value in [8] is 0.120 µg/mL (≈ 0.412 µM). Moreover, in [10], the “GI50 Breast MCF-7” value turned out to be 0.046 µg/mL (≈ 0.158 µM).

For `O=C1NC2C(CC(O)C(O)C2O)c2cc3c(c(O)c21)OCO3` (stereo not drawn) [3a, cis-dihydronarciclasine, reference compound], the GI50 in data set [3] is 3800 nM. Besides, in data set [9], the “activity against a range of RNA viruses” value was “completely inactive”.

Take `O=C1N[C@@H]2C(=C[C@H](O)[C@H]3OP(=O)([O-])O[C@H]32)c2cc3c(cc21)OCO3.[Li+]` [10a, Lithium 7-Deoxy-narcistatin]: in data set [1], the “GI50 Lung-NSC NCI-H460” value was >1 µg/mL. The “GI50 Prostate DU-145” value in [2] was >1 µg/mL. In addition, the “GI50 Colon KM20L2” value in data set [4] is >1 µg/mL. The “GI50 Pancreas-a BXPC-3” value in data set [7] was >1 µg/mL. Moreover, the “GI50 CNS SF268” value in [8] was >1 µg/mL. The “GI50 Breast MCF-7” value in data set [10] is >1 µg/mL.

Turning to `O=C1N[C@@H]2C(=C[C@H](O)[C@H]3OP(=O)([O-])O[C@H]32)c2cc3c(cc21)OCO3.[K+]` [10b, Potassium 7-Deoxy-narcistatin], in data set [1], the “GI50 Lung-NSC NCI-H460” value is >1 µg/mL. The “GI50 Prostate DU-145” value in [2] is >1 µg/mL. Further, in data set [4], the “GI50 Colon KM20L2” value is >1 µg/mL. In addition, in [7], the “GI50 Pancreas-a BXPC-3” value was >1 µg/mL. In addition, the “GI50 CNS SF268” value in data set [8] is >1 µg/mL. Further, the “GI50 Breast MCF-7” value in data set [10] was >1 µg/mL.

In the case of `O=C1N[C@@H]2C(=C[C@H](O)[C@H]3OP(=O)([O-])O[C@H]32)c2cc3c(cc21)OCO3.[Na+]` [compound 10, Sodium 7-Deoxy-narcistatin], in data set [1], the “GI50 Lung-NSC NCI-H460” value came out at 4.7 µg/mL. The “GI50 Prostate DU-145” value in [2] amounted to 3.9 µg/mL. The “GI50 Colon KM20L2” value in data set [4] was determined as 5.6 µg/mL. For the same molecule, the “GI50 Pancreas-a BXPC-3” value in data set [7] came to 5.3 µg/mL. Also, the “GI50 CNS SF268” value in data set [8] is 6.3 µg/mL. The “GI50 Breast MCF-7” value in data set [10] stood at 4.0 µg/mL.
